Measurements as given in PMC10096180, “Half-Sandwich Type Platinum-Group Metal Complexes of C-Glucosaminyl Azines: Synthesis and Antineoplastic and Antimicrobial Activities” (Molecules, 2023).
Like-named read-outs stand apart in the source and are kept apart here. One block for each compound: values may come before it.

How the values were obtained:
[1] = tested on: vancomycin-resistant Enterococcus (VRE) clinical isolates; experiment: Broth microdilution MIC, clinical VRE isolates; format: cell-based, E. faecium; details: 24 h, 0.08–40 μM
Method: (§1) We used a set of clinical isolates of S. aureus and E. faecium that were collected at the Medical Center of the University of Debrecen (Hungary) between 1 January 2018. and 31 December 2020. The clinical isolates were identified using a Microflex MALDI-TOF mass spectrometer (Bruker, Billerica, MA, USA). The antibiotic susceptibility of the isolates was tested following the European Committee on Antimicrobial Susceptibility Testing (EUCAST) guidelines, which were valid at the time of collection.
(§2) Microdilution experiments were performed according to the standards of EUCAST [85]. The bacterial isolates to be tested were grown on Mueller–Hinton agar plates. The inoculum density of bacteria was set at 5.0 × 10^5 CFU/mL in microtiter plates in a final volume of 200 μL Mueller–Hinton broth. The tested concentration range was 0.08–40 μM (10 concentrations, twofold serial dilutions), and a drug-free growth control and an inoculum-free negative control were included. The inoculated plates were incubated for 24 h at 37 °C, then visually assessed. Minimum inhibitory concentration (MIC) was defined as the lowest concentration with a 50%≤ inhibitory effect compared to the growth control. All experiments were performed at least twice in duplicate.

[2] = tested on: methicillin-resistant Staphylococcus aureus (MRSA) clinical isolates; experiment: Broth microdilution MIC, clinical MRSA isolates; format: cell-based; details: 24 h, 0.08–40 μM
Method: as §1, §2

[3] = tested on: A2780 cells; experiment: MTT reduction assay, early toxicity, 4 h treatment; format: cell-based; details: inhibition at maximum concentration (100 μM) where no plateau, ND = not detectable; for inhibition at 100 µM: Homo sapiens, read-out: A2780 MTT Max Inhibition
Method: (§3) The complexes described above are intended to replace registered platinum complexes. Platinum complexes constitute the core of the chemotherapy regimen used in ovarian cancer; therefore, we used a cellular model of ovarian cancer, A2780, and primary human dermal fibroblasts as models of non-transformed cells (controls). For the characterization of the complexes, we used an MTT assay after 4 h of treatment for the detection of early toxicity and an SRB assay 48 h after treatment for the detection of cytostasis.
An MTT reduction assay was measures the activity of mitochondrial complex I and can be used to detect toxicity. The assay was performed in a manner similar to that described in [84]. Briefly, cells were plated in 96-well plates the day before the assay. Cells were treated with the compounds for 4 h; then, MTT was added to a 0.5 mg/mL final concentration, and cells were incubated at 37 °C in a cell incubator for 40–60 min as a function of the cell line being assessed. Culture medium was removed, the reduced MTT dye was dissolved in dimethyl-sulfoxide, and plates were measured in a plate photometer (Thermo Scientific Multiscan GO spectrophotometer, Waltham, MA, USA) at 540 nm. On each plate, wells were designed to contain vehicle-treated cells. In calculations, the readings for these wells were considered to 1, and all readings were expressed relative to these values.
(§4) Statistical analysis was performed using version 8.0.1 of GraphPad Prism. Values were tested for normal distribution using the Shapiro–Wilk normality test. Nonlinear regression was performed using the built-in “[Inhibitor] vs. response—Variable slope (four parameters), least square fit” utility of GraphPad, which yielded IC50 and Hill slope values if the sigmoid curves reached a plateau of inhibition and there was no decrease between two subsequent data points or when inhibition was over 90%. In other cases, the percentage of inhibition was taken for the maximum concentration (100 μM).

[4] = tested on: Staphylococcus aureus (ATCC29213); experiment: Broth microdilution MIC, reference strain; format: cell-based; details: 0.08–40 μM, read-out: MIC S. aureus ATCC 29213
Method: (§5) The reference strains of Staphylococcus aureus (ATCC29213) and Enterococcus faecalis (ATCC29212) were purchased from the ATCC (Manassas, VA, USA).
as §2

[5] = tested on: Enterococcus faecalis (ATCC29212); experiment: Broth microdilution MIC, reference strain; format: cell-based; details: 24 h, tested range 0.08–40 μM, read-out: MIC E. faecalis ATCC 29,212
Method: as §5, §2

[6] = tested on: A2780 cells; experiment: SRB binding assay, cytostasis, 48 h treatment; format: cell-based; details: up to 100 μM, ND = not detectable
Method: as §3
An SRB assay measures protein content of cells in correlation with the cell number in an assay well and can therefore be used to assess cell proliferation or long-term cytostasis. Cells were seeded in 96-well plates the day before the assay. Cells were treated with the compounds for 48 h. Then medium was removed, and cells were fixed with 10% trichloroacetic acid. Fixed cells were washed in distilled water 3 times, followed by staining with SRB (0.4 m/V% dissolved in 1% acetic acid) for 10 min. Stained cells were washed in 1% acetic acid 5 times; acetic acid was removed, and cells were left to dry. Protein-bound SRB was released by adding 100 μL 10 mM Tris base. Plates were measured in a plate photometer (Thermo Scientific Multiscan GO spectrophotometer, Waltham, MA, USA) at 540 nm. On each plate, wells were designed to contain vehicle-treated cells. In calculations, the readings for these wells were considered to be 1, and all readings were expressed relative to these values.
as §4

[7] = Distribution coefficient (logD), n-octanol-PBS; format: physicochemical; details: n-octanol-PBS (pH = 7.4) system
Method: The logD values of the newly synthesized complexes were determined according to a procedure described in our previous publications. page 64: Ir-7b +1.17 Rh-7b +1.41 Ru-7c +1.31 Os-7c +1.59 Ir-7c +1.40 Rh-7c +1.13 Ru-7d +1.26 Os-7d +1.42 Ir-7d +1.30 Rh-7d +1.04 Ru-7e +2.22 Os-7e +2.21 Ir-7e +1.39 Rh-7e +1.66 *logD was determined in an n-octanol-PBS (pH = 7.4) system 64 (14 pictures or pasted objects on this page, not shown here)

[8] = Enterococcus, clinical isolate 25,051 VRE, read-out: MIC 25,051 VRE
[9] = Enterococcus, clinical isolate 25,498 VRE, read-out: MIC 25,498 VRE
[10] = Enterococcus, clinical isolate 27,085 VRE, read-out: MIC 27,085 VRE
[11] = Staphylococcus aureus, clinical isolate 20,426 MRSA, read-out: MIC 20,426 MRSA
[12] = Staphylococcus aureus, clinical isolate 24,035 MRSA, read-out: MIC 24,035 MRSA
[13] = Staphylococcus aureus, clinical isolate 24,268 MRSA, read-out: MIC 24,268 MRSA
[14] = Staphylococcus aureus, clinical isolate 24,272 MRSA, read-out: MIC 24,272 MRSA
[15] = Staphylococcus aureus, clinical isolate 24,328 MRSA, read-out: MIC 24,328 MRSA
[16] = Staphylococcus aureus, clinical isolate 24,408 MRSA, read-out: MIC 24,408 MRSA
[17] = Staphylococcus aureus, ATCC29213, 24 h

MIC [1, 8]: > 40 µM | MIC [1, 9]: > 40 µM | MIC [1, 10]: > 40 µM | MIC [2, 11]: > 40 µM | MIC [2, 12]: > 40 µM | MIC [2, 13]: > 40 µM | MIC [2, 14]: > 40 µM | MIC [2, 15]: > 40 µM | MIC [2, 16]: > 40 µM | MIC [4, 17]: > 40 µM | MIC ([5]; Enterococcus faecalis): > 40 µM
Compound: N[C@@H]1[C@@H](OCc2ccccc2)[C@H](OCc2ccccc2)[C@@H](COCc2ccccc2)O[C@H]1c1cnccn1 [Complex 3d, 2-(2′-Amino-2′-deoxy-3′,4′,6′-tri-O-benzyl-β-D-glucopyranosyl)pyrazine]
A2780 MTT Max Inhibition [3]: no activity

Compound: N[C@@H]1[C@@H](O)[C@H](O)[C@@H](CO)O[C@H]1c1ccccn1 [Complex 5a, 2-(2′-Amino-2′-deoxy-β-D-glucopyranosyl)pyridine]
A2780 SRB Max Inhibition [6]: did not exhibit any biological activity | A2780 MTT Max Inhibition [3]: did not exhibit any biological activity

Compound: N[C@@H]1[C@@H](OC(=O)c2ccccc2)[C@H](OC(=O)c2ccccc2)[C@@H](COC(=O)c2ccccc2)O[C@H]1c1ncccn1 [Complex 7c, 2-(2′-Amino-2′-deoxy-3′,4′,6′-tri-O-benzoyl-β-D-glucopyranosyl)pyrimidine]
A2780 SRB Max Inhibition [6]: 79.53% | inhibition at 100 µM [3]: 26.3%

Compound: N[C@@H]1[C@@H](OC(=O)c2ccccc2)[C@H](OC(=O)c2ccccc2)[C@@H](COC(=O)c2ccccc2)O[C@H]1c1cnccn1 [Complex 7d, 2-(2′-Amino-2′-deoxy-3′,4′,6′-tri-O-benzoyl-β-D-glucopyranosyl)pyrazine]
A2780 SRB Max Inhibition [6]: 73.37% | inhibition at 100 µM [3]: 18.1%

MIC [1, 8]: > 40 µM | MIC [1, 9]: > 40 µM | MIC [1, 10]: > 40 µM | MIC [2, 11]: > 40 µM | MIC [2, 12]: > 40 µM | MIC [2, 13]: > 40 µM | MIC [2, 14]: > 40 µM | MIC [2, 15]: > 40 µM | MIC [2, 16]: > 40 µM | MIC [4, 17]: > 40 µM | MIC ([5]; Enterococcus faecalis): > 40 µM
Compound: N[C@@H]1[C@@H](OC(=O)c2ccccc2)[C@H](OC(=O)c2ccccc2)[C@@H](COC(=O)c2ccccc2)O[C@H]1c1ccc2ccccc2n1 [Complex 7e, 2-(2′-Amino-2′-deoxy-3′,4′,6′-tri-O-benzoyl-β-D-glucopyranosyl)quinoline]
A2780 SRB Max Inhibition [6]: 45.20% | inhibition at 100 µM [3]: 13.6%

logD [7]: 1.30
Compound: Cc1c(C)c(C)[c-](C)c1C.F[P-](F)(F)(F)(F)F.N[C@@H]1[C@@H](OC(=O)c2ccccc2)[C@H](OC(=O)c2ccccc2)[C@@H](COC(=O)c2ccccc2)O[C@H]1c1cnccn1.[Cl][Ir+2] [Ir-7d]
A2780 SRB Max Inhibition [6]: 80.44% | A2780 MTT Max Inhibition [3]: 38.71%

logD [7]: 1.42
Compound: Cc1ccc(C(C)C)cc1.F[P-](F)(F)(F)(F)F.N[C@@H]1[C@@H](OC(=O)c2ccccc2)[C@H](OC(=O)c2ccccc2)[C@@H](COC(=O)c2ccccc2)O[C@H]1c1cnccn1.[Cl][Os+] [Os-7d]
A2780 SRB Max Inhibition [6]: 80.44% | A2780 MTT Max Inhibition [3]: 46.72%

MIC ([1]; clinical isolate 25,051 VRE, read-out: MIC 25,051 VRE): >40 µM | MIC ([1]; clinical isolate 25,498 VRE, read-out: MIC 25,498 VRE): >40 µM | MIC ([1]; clinical isolate 27,085 VRE, read-out: MIC 27,085 VRE): >40 µM | MIC ([2]; clinical isolate 20,426 MRSA, read-out: MIC 20,426 MRSA): >40 µM | MIC ([2]; clinical isolate 24,035 MRSA, read-out: MIC 24,035 MRSA): >40 µM | MIC ([2]; clinical isolate 24,268 MRSA, read-out: MIC 24,268 MRSA): >40 µM | MIC ([2]; clinical isolate 24,272 MRSA, read-out: MIC 24,272 MRSA): >40 µM | MIC ([2]; clinical isolate 24,328 MRSA, read-out: MIC 24,328 MRSA): >40 µM | MIC ([2]; clinical isolate 24,408 MRSA, read-out: MIC 24,408 MRSA): >40 µM | MIC ([4]; 24 h): >40 µM | MIC [5]: >40 µM | logD [7]: 2.21
Compound: Cc1ccc(C(C)C)cc1.F[P-](F)(F)(F)(F)F.N[C@@H]1[C@@H](OC(=O)c2ccccc2)[C@H](OC(=O)c2ccccc2)[C@@H](COC(=O)c2ccccc2)O[C@H]1c1ccc2ccccc2n1.[Cl][Os+] [Os-7e]
A2780 SRB Max Inhibition [6]: 67.50% | A2780 MTT Max Inhibition [3]: 27.04%

logD [7]: 1.04
Compound: Cc1c(C)c(C)[c-](C)c1C.F[P-](F)(F)(F)(F)F.N[C@@H]1[C@@H](OC(=O)c2ccccc2)[C@H](OC(=O)c2ccccc2)[C@@H](COC(=O)c2ccccc2)O[C@H]1c1cnccn1.[Cl][Rh+2] [Rh-7d]
A2780 SRB Max Inhibition [6]: 64.76% | A2780 MTT Max Inhibition [3]: 18.08%

logD [7]: −1.91
Compound: Cc1ccc(C(C)C)cc1.F[P-](F)(F)(F)(F)F.N[C@@H]1[C@@H](O)[C@H](O)[C@@H](CO)O[C@H]1c1ccccn1.[Cl][Ru+] [Ru-5a]
A2780 SRB Max Inhibition [6]: did not exhibit any biological activity | A2780 MTT Max Inhibition [3]: did not exhibit any biological activity

logD [7]: 1.26
Compound: Cc1ccc(C(C)C)cc1.F[P-](F)(F)(F)(F)F.N[C@@H]1[C@@H](OC(=O)c2ccccc2)[C@H](OC(=O)c2ccccc2)[C@@H](COC(=O)c2ccccc2)O[C@H]1c1cnccn1.[Cl][Ru+] [Ru-7d]
A2780 SRB Max Inhibition [6]: 80.44% | A2780 MTT Max Inhibition [3]: 64.04%
